From paper PMC4133348, “Domain Organization, Catalysis and Regulation of Eukaryotic Cystathionine Beta-Synthases” (PLoS ONE, 2014)

Key:
dCBS = molecular target: T1, dCBS (Drosophila melanogaster, UniProt Q9VRD9); assay: […]serine radioisotope assay of canonical reaction; format: biochemical; details: 10 mM L-serine, 10 mM L-homocysteine, 0.2 mM PLP, pH 8.6, 37 °C
T1 construct: gene Cbs; full-length, permanent C-terminal 6xHis (pET28-C-dCBS), E. coli Rosetta2 (DE3), homodimer, heme-containing
T1 sequence (Q9VRD9 1-522): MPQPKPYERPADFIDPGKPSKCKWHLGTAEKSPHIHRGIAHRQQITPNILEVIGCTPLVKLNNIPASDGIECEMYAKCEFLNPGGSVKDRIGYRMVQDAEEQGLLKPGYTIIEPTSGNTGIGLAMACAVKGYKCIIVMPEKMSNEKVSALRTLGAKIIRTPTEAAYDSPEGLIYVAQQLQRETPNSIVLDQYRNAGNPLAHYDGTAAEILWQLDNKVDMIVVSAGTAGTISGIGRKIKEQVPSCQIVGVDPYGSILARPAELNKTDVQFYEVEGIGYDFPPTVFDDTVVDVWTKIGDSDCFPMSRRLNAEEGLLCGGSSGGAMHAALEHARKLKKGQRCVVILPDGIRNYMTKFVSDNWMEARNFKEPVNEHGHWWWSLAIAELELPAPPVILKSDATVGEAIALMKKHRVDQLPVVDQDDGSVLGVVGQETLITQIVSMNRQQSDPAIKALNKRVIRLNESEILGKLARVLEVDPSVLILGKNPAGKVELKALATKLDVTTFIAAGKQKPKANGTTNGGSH

hCBS [1] = molecular target: T2, hCBS (Homo sapiens, UniProt P35520); assay: as above; format: biochemical; details: 10 mM L-serine, 10 mM L-homocysteine, 0.2 mM PLP, pH 8.6, 37 °C; no AdoMet
T2 construct: gene CBS; full-length, permanent C-terminal 6xHis, E. coli, homotetramer of 63 kDa polypeptides, heme-containing
T2 sequence (P35520 1-551): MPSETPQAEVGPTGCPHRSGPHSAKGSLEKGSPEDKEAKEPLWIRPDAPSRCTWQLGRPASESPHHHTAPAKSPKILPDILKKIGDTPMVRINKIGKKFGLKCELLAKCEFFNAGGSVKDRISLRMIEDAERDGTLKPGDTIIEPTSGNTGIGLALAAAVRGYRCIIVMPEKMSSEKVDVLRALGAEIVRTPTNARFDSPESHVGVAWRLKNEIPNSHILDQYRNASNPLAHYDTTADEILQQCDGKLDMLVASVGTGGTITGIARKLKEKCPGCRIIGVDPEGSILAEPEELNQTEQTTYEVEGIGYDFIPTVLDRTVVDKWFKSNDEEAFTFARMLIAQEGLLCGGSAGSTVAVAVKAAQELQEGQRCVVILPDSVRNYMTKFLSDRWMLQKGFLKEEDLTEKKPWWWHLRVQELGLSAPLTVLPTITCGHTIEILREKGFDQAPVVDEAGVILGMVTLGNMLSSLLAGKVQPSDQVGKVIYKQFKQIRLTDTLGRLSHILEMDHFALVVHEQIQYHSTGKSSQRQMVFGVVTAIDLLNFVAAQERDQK

yCBS [2] = molecular target: T3, yCBS (Saccharomyces cerevisiae, UniProt P32582); assay: differential scanning calorimetry; format: binding; details: 100 µM AdoMet, 20 mM HEPES pH 7.4, 50 µM PLP, 3 °C/min
T3 construct: gene CYS4
T3 sequence (P32582 1-507): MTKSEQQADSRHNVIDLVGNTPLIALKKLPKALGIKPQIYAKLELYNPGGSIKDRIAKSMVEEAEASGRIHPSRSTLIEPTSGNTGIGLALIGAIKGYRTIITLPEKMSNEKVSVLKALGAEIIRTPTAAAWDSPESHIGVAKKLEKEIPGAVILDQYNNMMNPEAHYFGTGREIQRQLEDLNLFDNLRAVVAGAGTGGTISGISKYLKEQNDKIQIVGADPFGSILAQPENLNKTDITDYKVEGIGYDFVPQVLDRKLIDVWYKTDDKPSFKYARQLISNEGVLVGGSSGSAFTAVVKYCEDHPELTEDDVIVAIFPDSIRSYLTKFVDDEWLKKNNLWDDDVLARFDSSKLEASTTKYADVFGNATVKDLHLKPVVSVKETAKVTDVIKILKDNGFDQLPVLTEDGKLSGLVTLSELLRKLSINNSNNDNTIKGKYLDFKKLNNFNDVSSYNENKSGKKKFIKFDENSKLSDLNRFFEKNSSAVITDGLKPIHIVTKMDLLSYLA

yCBS [3] = molecular target: T3, yCBS; assay: isothermal titration calorimetry; format: binding
hCBS [4] = molecular target: T2, hCBS; assay: […]serine radioisotope assay of canonical reaction (activation); format: biochemical; details: 10 mM L-serine, 10 mM L-homocysteine, 0.2 mM PLP, pH 8.6, 37 °C; allosteric activator
[5] = molecular target: the molecule itself; assay: native gel or EMSA; purified enzymes (100 ng CBS per lane) separated in a 4–15% polyacrylamide gradient gel under native conditions, transferred to PVDF and probed with monoclonal anti-6xHis antibody; oligomeric state of each enzyme
[6] = molecular target: T4, human cystathionine beta-synthase, full-length (human), P35520; assay: as above; details: remark: other sources report otherwise
T4 chain: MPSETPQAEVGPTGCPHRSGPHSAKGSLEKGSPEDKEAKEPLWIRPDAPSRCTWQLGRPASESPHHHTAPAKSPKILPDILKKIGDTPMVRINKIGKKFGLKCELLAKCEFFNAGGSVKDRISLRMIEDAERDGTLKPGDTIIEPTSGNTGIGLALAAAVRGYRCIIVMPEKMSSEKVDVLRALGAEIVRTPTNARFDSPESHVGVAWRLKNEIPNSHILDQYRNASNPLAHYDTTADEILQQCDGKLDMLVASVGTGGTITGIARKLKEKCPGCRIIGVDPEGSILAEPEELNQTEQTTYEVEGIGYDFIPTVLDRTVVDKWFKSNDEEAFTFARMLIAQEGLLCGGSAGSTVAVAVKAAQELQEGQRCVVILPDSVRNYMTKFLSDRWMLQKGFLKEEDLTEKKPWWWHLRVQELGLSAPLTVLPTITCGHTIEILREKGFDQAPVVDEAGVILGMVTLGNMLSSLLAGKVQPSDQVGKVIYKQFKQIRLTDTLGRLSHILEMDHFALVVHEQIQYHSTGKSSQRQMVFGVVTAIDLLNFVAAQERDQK

N[C@@H](CO)C(=O)O [Ser]
[14C]serine radioisotope assay of canonical reaction (dCBS): specific activity compared to hCBS in the canonical condensation of Ser and Hcy | [14C]serine radioisotope assay of canonical reaction (hCBS [1]): specific activity compared to hCBS in the canonical condensation of Ser and Hcy

C[S+](CC[C@H](N)C(=O)O)C[C@H]1O[C@@H](n2cnc3c(N)ncnc32)[C@H](O)[C@@H]1O (stereo partly shown) [AdoMet]
dTm (yCBS [2]): ~ 0.2 °C | Kd (yCBS [3]): 5 ± 0.5 µM | fold increase in specific activity at 300 μM (hCBS [4]): ~ 3.2 fold

B1: Saccharomyces cerevisiae cystathionine beta-synthase, full-length (enzyme, UniProt P32582 1-507, looked up)
chain: MTKSEQQADSRHNVIDLVGNTPLIALKKLPKALGIKPQIYAKLELYNPGGSIKDRIAKSMVEEAEASGRIHPSRSTLIEPTSGNTGIGLALIGAIKGYRTIITLPEKMSNEKVSVLKALGAEIIRTPTAAAWDSPESHIGVAKKLEKEIPGAVILDQYNNMMNPEAHYFGTGREIQRQLEDLNLFDNLRAVVAGAGTGGTISGISKYLKEQNDKIQIVGADPFGSILAQPENLNKTDITDYKVEGIGYDFVPQVLDRKLIDVWYKTDDKPSFKYARQLISNEGVLVGGSSGSAFTAVVKYCEDHPELTEDDVIVAIFPDSIRSYLTKFVDDEWLKKNNLWDDDVLARFDSSKLEASTTKYADVFGNATVKDLHLKPVVSVKETAKVTDVIKILKDNGFDQLPVLTEDGKLSGLVTLSELLRKLSINNSNNDNTIKGKYLDFKKLNNFNDVSSYNENKSGKKKFIKFDENSKLSDLNRFFEKNSSAVITDGLKPIHIVTKMDLLSYLA
notes: Cloned by NcoI and XhoI into pET-28a; also called yCBS; yCBS WT; source: E. coli Rosetta2 (DE3), purified (TALON, DEAE Sepharose); not shown: 6xHis, C-terminal, kept
stoichiometry N [5]: 4

B2: yCBS L345*, truncated Saccharomyces cerevisiae cystathionine beta-synthase lacking the regulatory domain (domain or fragment, UniProt P32582 1-344, looked up)
chain: MTKSEQQADSRHNVIDLVGNTPLIALKKLPKALGIKPQIYAKLELYNPGGSIKDRIAKSMVEEAEASGRIHPSRSTLIEPTSGNTGIGLALIGAIKGYRTIITLPEKMSNEKVSVLKALGAEIIRTPTAAAWDSPESHIGVAKKLEKEIPGAVILDQYNNMMNPEAHYFGTGREIQRQLEDLNLFDNLRAVVAGAGTGGTISGISKYLKEQNDKIQIVGADPFGSILAQPENLNKTDITDYKVEGIGYDFVPQVLDRKLIDVWYKTDDKPSFKYARQLISNEGVLVGGSSGSAFTAVVKYCEDHPELTEDDVIVAIFPDSIRSYLTKFVDDEWLKKNNLWDDDV
notes: cystathionine beta-synthase, Saccharomyces cerevisiae, C-terminally truncated at L345 (pET28-C-yCBS L345*); Cloned by NcoI and XhoI into pET-28a; source: E. coli Rosetta2 (DE3), purified (TALON, DEAE Sepharose); not shown: 6xHis, C-terminal, kept
stoichiometry N [5]: 2

B3: 45 kDa hCBS (hCBS V414*), truncated human cystathionine beta-synthase lacking the regulatory domain (domain or fragment, UniProt P35520 1-413, looked up)
chain: MPSETPQAEVGPTGCPHRSGPHSAKGSLEKGSPEDKEAKEPLWIRPDAPSRCTWQLGRPASESPHHHTAPAKSPKILPDILKKIGDTPMVRINKIGKKFGLKCELLAKCEFFNAGGSVKDRISLRMIEDAERDGTLKPGDTIIEPTSGNTGIGLALAAAVRGYRCIIVMPEKMSSEKVDVLRALGAEIVRTPTNARFDSPESHVGVAWRLKNEIPNSHILDQYRNASNPLAHYDTTADEILQQCDGKLDMLVASVGTGGTITGIARKLKEKCPGCRIIGVDPEGSILAEPEELNQTEQTTYEVEGIGYDFIPTVLDRTVVDKWFKSNDEEAFTFARMLIAQEGLLCGGSAGSTVAVAVKAAQELQEGQRCVVILPDSVRNYMTKFLSDRWMLQKGFLKEEDLTEKKPWWWHLR
notes: cystathionine beta-synthase, Homo sapiens, C-terminally truncated by a stop at V414 (regulatory domain removed); not shown: 6xHis, C-terminal, kept
stoichiometry N [5]: 2

B4: Drosophila melanogaster cystathionine beta-synthase, full-length (enzyme, UniProt Q9VRD9 1-522, looked up)
chain: MPQPKPYERPADFIDPGKPSKCKWHLGTAEKSPHIHRGIAHRQQITPNILEVIGCTPLVKLNNIPASDGIECEMYAKCEFLNPGGSVKDRIGYRMVQDAEEQGLLKPGYTIIEPTSGNTGIGLAMACAVKGYKCIIVMPEKMSNEKVSALRTLGAKIIRTPTEAAYDSPEGLIYVAQQLQRETPNSIVLDQYRNAGNPLAHYDGTAAEILWQLDNKVDMIVVSAGTAGTISGIGRKIKEQVPSCQIVGVDPYGSILARPAELNKTDVQFYEVEGIGYDFPPTVFDDTVVDVWTKIGDSDCFPMSRRLNAEEGLLCGGSSGGAMHAALEHARKLKKGQRCVVILPDGIRNYMTKFVSDNWMEARNFKEPVNEHGHWWWSLAIAELELPAPPVILKSDATVGEAIALMKKHRVDQLPVVDQDDGSVLGVVGQETLITQIVSMNRQQSDPAIKALNKRVIRLNESEILGKLARVLEVDPSVLILGKNPAGKVELKALATKLDVTTFIAAGKQKPKANGTTNGGSH
notes: Cloned by NcoI and HindIII into pET-28a; also called dCBS; source: E. coli Rosetta2 (DE3), purified (TALON, DEAE Sepharose); not shown: 6xHis, C-terminal, kept
stoichiometry N [5]: 2

B5: human cystathionine beta-synthase, full-length, P35520 1-551 (enzyme)
chain: MPSETPQAEVGPTGCPHRSGPHSAKGSLEKGSPEDKEAKEPLWIRPDAPSRCTWQLGRPASESPHHHTAPAKSPKILPDILKKIGDTPMVRINKIGKKFGLKCELLAKCEFFNAGGSVKDRISLRMIEDAERDGTLKPGDTIIEPTSGNTGIGLALAAAVRGYRCIIVMPEKMSSEKVDVLRALGAEIVRTPTNARFDSPESHVGVAWRLKNEIPNSHILDQYRNASNPLAHYDTTADEILQQCDGKLDMLVASVGTGGTITGIARKLKEKCPGCRIIGVDPEGSILAEPEELNQTEQTTYEVEGIGYDFIPTVLDRTVVDKWFKSNDEEAFTFARMLIAQEGLLCGGSAGSTVAVAVKAAQELQEGQRCVVILPDSVRNYMTKFLSDRWMLQKGFLKEEDLTEKKPWWWHLRVQELGLSAPLTVLPTITCGHTIEILREKGFDQAPVVDEAGVILGMVTLGNMLSSLLAGKVQPSDQVGKVIYKQFKQIRLTDTLGRLSHILEMDHFALVVHEQIQYHSTGKSSQRQMVFGVVTAIDLLNFVAAQERDQK
stoichiometry N [6]: 4
